Earlier results, collected in PMC10591956 (Journal of controlled release : official journal of the …, 2023).

Test system: intraocular pressure (IOP)
Conditions: single intracameral injection, normotensive rabbits

SMILES: Brc1c(NC2=NCCN2)ccc2nccnc12 [brimonidine]
- duration of IOP reduction: 7 days
